# Test results reported in patent EP4467137A1, “TREATMENT OF FRONTOTEMPORAL DEMENTIA OR FRONTOTEMPORAL LOBAR DEMENTIA” (Universidad Autónoma de Madrid, priority 2023, dated 2024).
# System: TNF-α mRNA
# Assay: qRT-PCR of TNFα in LPS-exposed BV2 cells
# Assay type: cell-based, mouse
# Conditions: 10 and 30 µM, 24 h LPS
# Procedure: • Figure 1. Compound 1 reduces the inflammatory response against LPS in vitro. (A) Nitric oxide (NO) production in BV2 cells detected by DAF 24 h after LPS exposure and normalized by cell viability measured by MTT (n = 9). (B) qRT-PCR of TNFα (n = 9) in BV2 cells after 24 h LPS exposure. Sulforaphane (Sfn) was used as a positive control. […] Compound 1 decreases the inflammatory process 4 and 24 hours after LPS administration in vivo. Compound 1 (20 mg·kg^-1) daily was injected i.p. four days before the i.p. LPS (0.5 mg·kg^-1) administration. […] Compound 1 ameliorates the resolution of the inflammatory process triggered by LPS. […] (B) Locomotion activity measured by line crossings of an imaginary grid. […] Compound 1 reduced tau seeding in HEK-293 tau FRET biosensor measured by flow cytometer (C). […] Representative images of hyperphosphorylated tau intensity measured by AT8 and AT180 antibodies in three different regions of the hippocampus (GD, CA3 and CA1) (n = 11-12). (B) Quantification AT8 intensity, normalized to CA3 intensity of Sham animals. (C) Quantification of AT180 intensity, normalized to CA3 intensity of Sham animals (n = 9-12). […] Quantification of sarkosyl soluble (n = 10) (C) and insoluble species (D) using AT8 antibody (n = 10). Quantification of sarkosyl soluble (n = 10) (E) and insoluble species (F) using AT180 antibody (n = 10). […]
compound,measurement,value
"COc1ccc2c(c1)CC(c1c[nH]c3ccc(OC)cc13)N2 (stereo not shown) [Compound 1, 5-Methoxy-3-(5-methoxyindolin-2-yl)-1H-indole]",TNF-α mRNA,reduced
